Test results reported in patent US20220387544A1, “NOVEL THERAPEUTIC USE” (Artios Pharma Limited, priority 2019, published 2022).

What was measured:
Assay type in all cases: cell-based
[1] = test system: Shieldin-defective, PARPi-resistant SUM149 cells; assay: Re-sensitisation to olaparib
Procedure: For measurement of re-sensitisation to Olaparib, exponentially growing cells were exposed to Compound A for 48 hours. After, cells were seeded in 96-well plates at a concentration of 1000-2000 cells per well. 24 hours post-seeding, Olaparib treatment was initiated and cells were continuously exposed to the drug with media and drug replenished every 72 hours. After 10 days, cell viability was estimated using Cell-Titre Glo (Promega). SFs were calculated and drug sensitivity curves plotted as previously described (Farmer et al Nature (2005) 434, 917-921).
Briefly, parental SUM149 cells or derivatives with either BRCA1 restored or with genetic deletion of either C20orf196 or 53BP1 were treated with Compound A in a tissue culture flask for 48 hours. The cells were then washed before seeding at low density in 96 well plates. 24 hours post seeding, cells were incubated with either olaparib or DMSO for a further 10 days. The relative survival normalised to untreated cells was measured using Cell-Titre Glo.

[2] = test system: parental and C20orf196 KO SUM149 tumouroids; assay: Tumouroid assay, parental vs C20orf196 KO SUM149; conditions: in C20orf196 KO cells when compared with olaparib
Procedure: Cells were seeded into a hydrogel containing 10% rat tail collagen (OcellO) in 384-well high content imaging microplates at varying densities to compensate for differential growth characteristics (Table 2).
24 hours after seeding, test compounds and olaparib (Selleckchem) were added in an eight-point dose range with a one in three serial dilution (maximum concentration 12 μM for all compounds, except 30 μM compound A for REV7 KO cell experiments). Dimethyl sulfoxide (DMSO) and 1 μM staurosporine (Med Chem Express) treatments were included as negative and positive controls, respectively. All treatments were carried out in quadruplicate.
After seven or fourteen days of treatment for 20orf196 KO and REV7 KO experiments respectively, cells were fixed with 5× Fix & Stain solution (OcellO) for 16 hours at 4° C. to stain both the nuclei using Hoechst 33258 and the actin cytoskeleton using Rhodamine-Phalloidin. Cells were washed four times with phosphate-buffered saline (PBS), and plates were imaged and analysed using OcellO's three-dimensional image analysis software (Ominer). For each well, two channels of 16-bit image stacks were collected using an automated microscope system: Molecular Devices ImageXpress Micro XLS, equipped with a 4× magnification/0.2NA PlanApo objective. For each image slice (n=47), pixel size was 0.324 μm and step size in z-direction was 50 μm.
Parental or C20orf196 KO SUM149 cells were seeded into a collagen-containing hydrogel in 384-well plates and incubated overnight. The resulting tumouroids were treated with a serial dilution of Polθ inhibitor or olaparib for seven days, fixed, and stained to visualise DNA and F-actin. Plates were imaged, and tumouroid size was measured using OcellO's three-dimensional image analysis software.
(§1) Parental or C20orf196 KO SUM149 cells were seeded into a collagen-containing hydrogel in 384-well plates and incubated overnight. The resulting tumouroids were treated with a serial dilution of Polθ inhibitor or olaparib for seven days, fixed, and stained to visualise DNA and F-actin. Plates were imaged, and the number of nuclei per tumouroid was counted using OcellO's three-dimensional image analysis software.
as §1, with “with” for “with a serial dilution of”, “inhibitor, olaparib” for “inhibitor”, “control compound (at the concentrations indicated)” for “olaparib”, “fraction” for “number”, “without an associated actin cytoskeleton” for “per tumouroid”, “calculated” for “counted”

[3] = test system: Parental and REV7 KO SUM149 cells; assay: Clonogenic survival assay (ICR), SUM149 REV7 KO clones; conditions: REV7 KO clones vs parental SUM149, 14 days
Procedure: Clonogenic survival assays were performed as previously described (Edwards et al Nature (2008) 451, 1111-1115; Farmer et al Nature (2005) 434, 917-921). For measurement of sensitivity to Compound A inhibitor, exponentially growing cells were seeded in six-well plates at a concentration of 1000-2000 cells per well. For Compound A, cells were continuously exposed to the drug with media and drug replaced every 72 h. After 14 days, cells were fixed and stained with sulphorhodamine-B (Sigma) and colonies were counted. SFs were calculated and drug sensitivity curves plotted as previously described (Farmer et al Nature (2005) 434, 917-921).
Parental or REV7 KO SUM149 cells were seeded into 6 well plates and incubated overnight. The cells were then treated with a serial dilution of Polθ inhibitor or olaparib for 14 days, fixed, and stained with sulphorhodamine B. The colonies in each well were counted and normalised survival data plotted to generate a dose-response curve.

[4] = test system: RPE1 TP53-/-BRCA1-/-cells; assay: siRNA screen for Compound A sensitivity in BRCA1 defective RPE1; conditions: for Drug Effect (DE) Z-score: BRCA1 defective RPE1
Source text: An siRNA library was purchased from Dharmacon. Each well contained a SMART pool of four distinct siRNA species targeting different sequences of the target transcript, as well as individual siRNA targeting components of the Shieldin complex. Each plate was supplemented with negative siCONTROL (12 wells; Dharmacon) and positive control (four wells, siPLK1, Dharmacon). RNAi screening conditions were optimized and raw CellTitre-Glo (Promega) luminescent viability readings were generated as previously described (Lord et al DNA Repair (2008) 7, 2010-2019). Compound A or vehicle (DMSO) was added 24 h after transfection at 5 μM (CAL51) or 10 μM (RPE TP53-/-BRCA1-defective) concentration in media and cells were exposed for 5 days. Statistical analysis of the siRNA screen was performed as described elsewhere (Lord et al DNA Repair (2008) 7, 2010-2019). In brief, luminescence values from CellTitre-Glo assays in Compound A and DMSO exposed cells were log2 transformed and then normalized to plate median (PM) effects. Drug Effect (DE) scores were calculated from PM normalized data using the equation: DE=(log2 PM normalized signal of siRNA in the presence of Compound A)—(log2 PM normalized signal of siRNA in the absence of Compound A). DE values were then Z-score standardized according to screen median and median absolute deviation values.
To discover genes that are synthetic lethal with Polθ inhibitor in cells lacking DSBR through homologous recombination, an siRNA screen using 1418 siRNAs was performed using BRCA1 defective RPE1 TP53-/-BRCA1-/-cells. The screen was performed and analysed as described in FIG. 8 for the CAL51 screen. REV7 and SHLD2 (FAM35A) were two of the top hits (FIG. 8(a)), confirming the link between SHLD component defects and Polθ inhibitor sensitivity.

Cc1cccc(N(C)C(=O)[C@@H]2[C@H](O)CCN2c2nc(C)cc(C(F)(F)F)c2C#N)c1 [Compound A, (2S,3R)-1-(3-cyano-6-methyl-4-(trifluoromethyl)pyridin-2-yl)-3-hydroxy-N-methyl-N-(m-tolyl)pyrrolidine-2-carboxamide]
sensitivity to olaparib after pre-treatment ([1]; Compound A 10 μM 48 hours then olaparib 1 μM 10 days, SUM149 C20orf196 and SUM149 53BP1 cells): induced sensitivity | effect on survival of 48 hours treatment alone ([1]; Compound A 10 μM for 48 hours then DMSO, SUM149 cells and derivatives): no effect on survival | cell death [2]: significantly more cell death | reduction in the number of nuclei per tumoroid [2]: greater reduction in the number of nuclei per tumoroid | reduction in tumoroid size [2]: greater reduction in tumoroid size | sensitivity by reduction in number of colonies [3]: increased sensitivity | sensitivity caused by siRNAs targeting FAM35A or REV7 (DE<−2) ([4]; BRCA1 defective RPE1 cells, 10 μM, 5 days): caused sensitivity | Drug Effect (DE) Z-score ([4]; non-targeting siRNA Allstar control): 1.3 | Drug Effect (DE) Z-score ([4]; non-targeting siRNA siCON1): −0.8 | Drug Effect (DE) Z-score ([4]; non-targeting siRNA siCON2): −0.6
